From patent publication US20250154525A1, “PLANT VIRUS MOVEMENT PROTEINS AND METHODS OF USING SAME” (Molecular Transfer, Inc., priority 2016, published 2025)

What was measured:
HuVec Cells [1] = assay: GFP plasmid transfection with DOTMA/DOPE plus plant virus movement protein derived peptides (Example 2); assay type: cell-based; conditions: 42 hours
Protocol: (§1) Cells were plated to so that on the day of transfection the cells were 70% confluent in 96 well tissue culture plates. A DOMTA/DOPE Lipid solution (1:1 molar ratio) at 2 mg/mL in water were mixed with an equal volume of plant virus movement protein derived peptides that had the nucleic acid binding moiety RRRRRRRRRRRR (SEQ ID NO:109) or KKKKKKKKKKKKKKKK (SEQ ID NO: 102) covalently linked to the N-terminus, or C-terminus of each peptide during peptide synthesis. Peptides were at 2 mg/mL in water. The DOTMA/DOPE and the plant virus movement peptide solution the was diluted 1 to 1 (v/v) in water. DOMTA/DOPE/PEPTIDE solutions were added to 0.1 mL of a plasmid DNA solution (EF1Alpha eGFP plasmid) at 10 μg/mL in OptiMEM.
(§2) All solutions were at room temperature. A volume of 0.2 mL of a 10 μg/mL solution of DNA was aliquoted into each well of a non-tissue cultured treated plate. 1-6 μL of transfection reagents were added to DNA solutions respectively. The transfection reagent and DNA solution was mixed by pipetting up and down twice. Transfection complexes were formed for 10 minutes. After 10 minutes, 0.01 or 0.02 mL of the transfection complex was added to cells. HuVEC, HeLa, human adult keratinocytes, human primary adult fibroblast, and A549 cells all respectively received 0.01 mL of the transfection complex. Human skeletal muscle cells, mouse C2C12 cells, and Jurkat, cells received 0.02 mL of the transfection complex. Cells were incubated for 42 hours at 37° C. at 5% CO2. Plates were read on a fluorescent plate reader. Cells were also examined visually under a microscope to assess the extent of transfection (in terms of the percent of cells transfected) with a fluorescent microscope. Other modes of analysis, for example quantification with B-galactosidase or luciferase reports plasmids can also be used.

[2] = system: Human Primary Fibroblast Cells; assay: as above; assay type: cell-based; conditions: 42 hours
Protocol: as §1, §2

HeLa Cells [3] = assay: as above; assay type: cell-based; conditions: 1-6 μL of transfection reagents
Protocol: as §1, §2

HuVec Cells [4] = assay: GFP plasmid transfection with DOTMA/DOPE plus surface ligand peptide, fluorescent plate reader (Example 1); assay type: cell-based; conditions: DOTMA/DOPE + peptide linked to R12 or K16; EF1Alpha eGFP plasmid; 42 hours
In short: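 HuVEC cells in 96 well plates at 70% confluence were transfected with EF1Alpha eGFP plasmid using a 1:1 molar DOTMA/DOPE lipid mixed with a surface ligand peptide carrying a covalently attached nucleic acid binding moiety. Complexes formed for 10 minutes, 0.01 mL went to each well, cells were incubated 42 hours at 37° C., and fluorescence was read on a plate reader.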

NL-1 iPS Cells = assay: as above; assay type: cell-based; conditions: DOTMA/DOPE + peptide linked to R12 or K16; EF1Alpha eGFP plasmid; 42 hours
Jurkat Cells = assay: as above; assay type: cell-based; conditions: DOTMA/DOPE + peptide linked to R12 or K16; EF1Alpha eGFP plasmid; 42 hours
In short: (§3)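 DOTMA/DOPE (1:1 molar) plus peptide bearing a poly-Arg or poly-Lys tag was complexed 10 min with EF1alpha eGFP plasmid in OptiMEM, then added to 70%-confluent cells (0.01 mL fibroblasts; 0.02 mL C2C12, Jurkat). After 42 h at 37 °C, GFP was read by plate reader and compared with DOTMA without ligand.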

HeLa Cells [5] = assay: as above; assay type: cell-based; conditions: DOTMA/DOPE + peptide linked to R12 or K16; EF1Alpha eGFP plasmid; 42 hours
Human Fibroblast Cells = assay: as above; assay type: cell-based; conditions: DOTMA/DOPE + peptide linked to R12 or K16; EF1Alpha eGFP plasmid; 42 hours
In short: as §3

C2C12 Cells = assay: as above; assay type: cell-based, mouse; conditions: DOTMA/DOPE + peptide linked to R12 or K16; EF1Alpha eGFP plasmid; 42 hours
In short: as §3

HeLa Cells [6] = assay: GFP transfection with DOTMA/SEQ ID NO: 72 (fusogenic peptide)/peptide compared with Lipofectamine 2000; assay type: cell-based
In short: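 DOTMA/DOPE (1:1 molar) lipid mixed with polyarginine- or polylysine-tagged cell-surface-ligand peptide, complexed 10 min with EF1alpha eGFP plasmid at 10 μg/mL in OptiMEM, fusogenic peptide at 0.1 mg/mL final; HeLa cells ~70% confluent given 0.01 mL complex. GFP read by fluorescence plate reader and microscopy (% cells transfected) after 42 h at 37° C; Lipofectamine 2000 as comparator.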

some examined cell types = assay: Summary of Example 1: transfection expression and % cells transfected over the no peptide control; assay type: cell-based; conditions: on some examined cell types
In short: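 Cells at 70% confluence received DNA complexes of EF1Alpha eGFP plasmid with DOTMA/DOPE (1:1) plus oligo-Arg- or oligo-Lys-tagged peptide ligands, formed 10 min at room temperature. After 42 h at 37 °C, 5% CO2, GFP read by plate reader and % transfected cells judged microscopically, relative to lipid without peptide.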

[7] = value column 1 of 6, head not given, 1 µL transfection reagent
[8] = value column 3 of 6, head not given, 3 µL transfection reagent
[9] = value column 4 of 6, head not given, 4 µL transfection reagent
[10] = 0.1 μL of DOTMA/SEQ ID NO: 72/Peptide in well of a 96 well plate
[11] = 0.2 μL of DOTMA/SEQ ID NO: 72/Peptide in well of a 96 well plate
[12] = 0.3 μL of DOTMA/SEQ ID NO: 72/Peptide in well of a 96 well plate
[13] = 0.4 μL of DOTMA/SEQ ID NO: 72/Peptide in well of a 96 well plate

Compound | Relative Fluorescence of Transfection of Hela Cells (HeLa Cells [3]; 2 µL transfection reagent) | Relative Fluorescence of Transfection of Hela Cells (HeLa Cells [3]; 5 µL transfection reagent) | Relative Fluorescence of Transfection of Hela Cells (HeLa Cells [3]; [7]) | Relative Fluorescence of Transfection of Hela Cells (HeLa Cells [3]; [8]) | Relative Fluorescence of Transfection of Hela Cells (HeLa Cells [3]; [9]) | Relative Fluorescence of Transfection of HuVec Cells (RF) (HuVec Cells [4]) | Relative Fluorescence of Transfection of NL-1 iPS Cells (RF) (NL-1 iPS Cells) | Relative Fluorescence of Transfection of Jurkat Cells (RF) (Jurkat Cells) | Relative Fluorescence of Transfection of HeLa Cells (RF) (HeLa Cells [5]) | Relative Fluorescence of Transfection of Human Fibroblast Cells (RF) (Human Fibroblast Cells) | Relative Fluorescence of Transfection of C2C12 Cells (RF) (C2C12 Cells) | Relative Fluorescence DOTMA/SEQ ID NO: 72/Peptide, HeLa Cells (RF) (HeLa Cells [6]; [10]) | Relative Fluorescence DOTMA/SEQ ID NO: 72/Peptide, HeLa Cells (RF) (HeLa Cells [6]; [11]) | Relative Fluorescence DOTMA/SEQ ID NO: 72/Peptide, HeLa Cells (RF) (HeLa Cells [6]; [12]) | Relative Fluorescence DOTMA/SEQ ID NO: 72/Peptide, HeLa Cells (RF) (HeLa Cells [6]; [13]) | transfection expression and % cells transfected over the no peptide control (some examined cell types) | other results
540 (RRRRRRRRRRRRVDYGKWERKPIRCASMSR) [compound 540] | 35653 | 13917 | 6422 | 27970 | 18620 | – | – | – | – | – | – | – | – | – | – | – | Relative Fluorescence of Transfection of HuVEC Cells (HuVec Cells [1]; Transfection Agent 1 μl): 24771 Rf; Relative Fluorescence of Transfection of HuVEC Cells (HuVec Cells [1]; Transfection Agent 1.5 μl): 34062 Rf; Relative Fluorescence of Transfection of HuVEC Cells (HuVec Cells [1]; Transfection Agent 2 μl): 44744 Rf; Relative Fluorescence of Transfection of HuVEC Cells (HuVec Cells [1]; Transfection Agent 3 μl): 44087 Rf; Relative Fluorescence of Transfection of HuVEC Cells (HuVec Cells [1]; Transfection Agent 4 μl): 45137 Rf; Relative Fluorescence of Transfection of HuVEC Cells (HuVec Cells [1]; Transfection Agent 6 μl): 30023 Rf; Relative Fluorescence of Transfection of Human Primary Fibroblast Cells ([2]; Transfection Agent 1 μl): 29368 Rf; Relative Fluorescence of Transfection of Human Primary Fibroblast Cells ([2]; Transfection Agent 1.5 μl): 40610 Rf; Relative Fluorescence of Transfection of Human Primary Fibroblast Cells ([2]; Transfection Agent 2 μl): 35505 Rf; Relative Fluorescence of Transfection of Human Primary Fibroblast Cells ([2]; Transfection Agent 3 μl): 33853 Rf; Relative Fluorescence of Transfection of Human Primary Fibroblast Cells ([2]; Transfection Agent 4 μl): 33063 Rf; Relative Fluorescence of Transfection of Human Primary Fibroblast Cells ([2]; Transfection Agent 6 μl): 30219 Rf
541 (RRRRRRRRRRRRGKWERKPIRCAS) [compound 541] | 36476 | 20473 | 17145 | 37105 | 23644 | – | – | – | – | – | – | – | – | – | – | – | Relative Fluorescence of Transfection of HuVEC Cells (HuVec Cells [1]; Transfection Agent 1 μl): 27405 Rf; Relative Fluorescence of Transfection of HuVEC Cells (HuVec Cells [1]; Transfection Agent 1.5 μl): 46446 Rf; Relative Fluorescence of Transfection of HuVEC Cells (HuVec Cells [1]; Transfection Agent 2 μl): OVER; Relative Fluorescence of Transfection of HuVEC Cells (HuVec Cells [1]; Transfection Agent 3 μl): 40401 Rf; Relative Fluorescence of Transfection of HuVEC Cells (HuVec Cells [1]; Transfection Agent 4 μl): 31568 Rf; Relative Fluorescence of Transfection of HuVEC Cells (HuVec Cells [1]; Transfection Agent 6 μl): 28125 Rf; Relative Fluorescence of Transfection of Human Primary Fibroblast Cells ([2]; Transfection Agent 1 μl): 35030 Rf; Relative Fluorescence of Transfection of Human Primary Fibroblast Cells ([2]; Transfection Agent 1.5 μl): 44894 Rf; Relative Fluorescence of Transfection of Human Primary Fibroblast Cells ([2]; Transfection Agent 2 μl): 42097 Rf; Relative Fluorescence of Transfection of Human Primary Fibroblast Cells ([2]; Transfection Agent 3 μl): 31837 Rf; Relative Fluorescence of Transfection of Human Primary Fibroblast Cells ([2]; Transfection Agent 4 μl): 29537 Rf; Relative Fluorescence of Transfection of Human Primary Fibroblast Cells ([2]; Transfection Agent 6 μl): 28921 Rf
CCCCCCCC/C=C\CCCCCCCCOCC(C[N+](C)(C)C)OCCCCCCCC/C=C\CCCCCCCC.[Cl-] (stereo not shown) [DOTMA, N-[1-(2,3-dioleyloxy)propyl]-N,N,N-trimethylammonium chloride, reference compound] | 4782 | 9694 | 4424 | 5377 | 6992 | 12230 | 8965 | 9084 | 7551 | 3397 | 1289 | – | – | – | – | – | –
503 (TAGSCLRKFSTMRRRRRRRRRRRR) [compound 503] | – | – | – | – | – | 12123 | 19014 | 9411 | 25368 | 13085 | 3973 | 12827 | 20006 | 17101 | 16206 | increased transfection expression and the % cells transfected | –
348 (HQQDLGTAGSCLRKFSTM) [compound 348] | – | – | – | – | – | 21214 | 21645 | 15585 | 22289 | 11802 | 8625 | 17413 | 18615 | 16164 | 15054 | increased transfection expression and the % cells transfected | –
344 (KGHRGF) [compound 344] | – | – | – | – | – | 11867 | 10895 | 10160 | 14415 | 12704 | 1678 | 13315 | 16387 | 12564 | 12511 | increased transfection expression and the % cells transfected | –
336 (GEFYFDLRLKGDK) [compound 336] | – | – | – | – | – | 5366 | 14875 | 4813 | 25262 | 10449 | 9647 | 14442 | 16702 | 13434 | 11334 | increased transfection expression and the % cells transfected | –
343 (LFSHAVSSNG) [compound 343] | – | – | – | – | – | 16239 | 21726 | 23499 | 5910 | 4590 | 3218 | 6961 | 8626 | 8577 | 8160 | increased transfection expression and the % cells transfected | –
